Common to all, as to assay: cell-based
Design in all cases: NanoBRET live-cell target engagement; % occupancy from displacement of tracer K10 on NanoLuc-kinase fusions, mean n=3
What all share (details): HEK293, read-out: % inhibition
(BRET reads energy transfer from a luciferase to a nearby fluorophore.)

In one test the target is FGFR2 (Homo sapiens, UniProt P21802). As to the method:
(§1) • 18. Prepare 10× test compounds in OptiMEM • a. Dilute the test compound to 1000× in DMSO (or the test compound solvent). […] Add 10μL per well of 10× test compound or 10μL of the DMSO control to the 96-well plates containing cells with 1× tracer. Mix on orbital shaker for 15 s at 900 rpm. • 20. Incubate the plate at 37°C + 5% CO2 incubator for 2hr. Allow plate to cool to RT for ∼15 min, then proceed to NanoBRET^TM Assay section below. • 21. Immediately before the BRET measurements, prepare 3× Complete NanoBRET^TM Nano-Glo® Substrate in OptiMEM without serum or phenol red. […] Mix gently by inverting 5–10 times in a conical tube. (The final concentration of Extracellular NanoLuc inhibitor in the 3× solution is 60 μM, for a working concentration of 20 μM.) • a. Note: 3× solutions should be used within 1.5 h after preparation. • 22. […] Incubate 2–3 min at RT. Following addition of NanoBRET^TM Nano-Glo® Substrate, measure donor emission (e.g., 450 nm) and acceptor emission (e.g., 610 nm or 630 nm) using a NanoBRET™-compatible luminometer. Fractional occupancy Quantitation • 2. Determine Fractional Occupancy with the following equation; % Occupancy = [1 – (X – Z)/( Y – Z)]∗100 • Where: • X = BRET in the presence of the test compound and tracer, • Y = BRET in the presence of the 100% BRET Control (Tracer + DMSO) • Z = BRET for the Zero BRET Control, e.g., • a. BRET from the NanoLuc Control Vector • b. BRET from Kinase/NanoLuc fusion + saturating dose of control test compound.

The target of a further test is ULK3 (Homo sapiens, UniProt Q6PHR2). The protocol:
as §1

Another test has as its target SGK1 (Homo sapiens, UniProt O00141). The protocol:
as §1

Another test concerns the target CAMK2A (Homo sapiens, UniProt Q9UQM7). The protocol: as §1
In another test the target is INSR (Homo sapiens, UniProt P06213). As to the method:
as §1

The target of the next test is MAP3K9 (Homo sapiens, UniProt P80192). As to the method: as §1
In a further test the target is CAMK1 (Homo sapiens, UniProt Q14012). The protocol: as §1
CAMK1, sequence (Q14012 whole entry): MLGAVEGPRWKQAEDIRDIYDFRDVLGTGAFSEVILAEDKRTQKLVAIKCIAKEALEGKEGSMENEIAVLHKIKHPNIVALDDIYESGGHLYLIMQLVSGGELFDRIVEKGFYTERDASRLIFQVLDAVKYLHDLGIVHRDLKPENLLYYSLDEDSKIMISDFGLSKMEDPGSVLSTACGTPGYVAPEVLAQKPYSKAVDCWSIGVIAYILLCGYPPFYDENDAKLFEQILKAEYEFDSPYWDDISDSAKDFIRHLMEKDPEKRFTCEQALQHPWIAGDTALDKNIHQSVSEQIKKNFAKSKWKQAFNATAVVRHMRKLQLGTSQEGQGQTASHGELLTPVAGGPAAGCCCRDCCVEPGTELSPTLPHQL
A further test addresses BRSK2 (Homo sapiens, UniProt Q8IWQ3). The protocol: as §1
A further test deals with CDK14 (Homo sapiens, UniProt O94921). As to the method:
as §1

For a further test, the target named is MAP3K2 (Homo sapiens, UniProt Q9Y2U5). As to the method:
as §1

The next test addresses LATS2 (Homo sapiens, UniProt Q9NRM7). As to the method:
as §1

The target in a further test is HIPK4 (Homo sapiens, UniProt Q8NE63). The protocol:
as §1

The target in a further test is PRKAA2 (Homo sapiens, UniProt P54646). As to the method:
as §1

In the next test the target is PHKG2 (Homo sapiens, UniProt P15735). The protocol:
as §1

The next test addresses PRKACA (Homo sapiens, UniProt P17612). As to the method:
as §1

The next test concerns the target NEK9 (Homo sapiens, UniProt Q8TD19). As to the method: as §1
In a further test the target is MAPK8 (Homo sapiens, UniProt P45983). As to the method:
as §1

In the next test the target is BMP2K (Homo sapiens, UniProt Q9NSY1). As to the method:
as §1

INSR, sequence (P06213 whole entry): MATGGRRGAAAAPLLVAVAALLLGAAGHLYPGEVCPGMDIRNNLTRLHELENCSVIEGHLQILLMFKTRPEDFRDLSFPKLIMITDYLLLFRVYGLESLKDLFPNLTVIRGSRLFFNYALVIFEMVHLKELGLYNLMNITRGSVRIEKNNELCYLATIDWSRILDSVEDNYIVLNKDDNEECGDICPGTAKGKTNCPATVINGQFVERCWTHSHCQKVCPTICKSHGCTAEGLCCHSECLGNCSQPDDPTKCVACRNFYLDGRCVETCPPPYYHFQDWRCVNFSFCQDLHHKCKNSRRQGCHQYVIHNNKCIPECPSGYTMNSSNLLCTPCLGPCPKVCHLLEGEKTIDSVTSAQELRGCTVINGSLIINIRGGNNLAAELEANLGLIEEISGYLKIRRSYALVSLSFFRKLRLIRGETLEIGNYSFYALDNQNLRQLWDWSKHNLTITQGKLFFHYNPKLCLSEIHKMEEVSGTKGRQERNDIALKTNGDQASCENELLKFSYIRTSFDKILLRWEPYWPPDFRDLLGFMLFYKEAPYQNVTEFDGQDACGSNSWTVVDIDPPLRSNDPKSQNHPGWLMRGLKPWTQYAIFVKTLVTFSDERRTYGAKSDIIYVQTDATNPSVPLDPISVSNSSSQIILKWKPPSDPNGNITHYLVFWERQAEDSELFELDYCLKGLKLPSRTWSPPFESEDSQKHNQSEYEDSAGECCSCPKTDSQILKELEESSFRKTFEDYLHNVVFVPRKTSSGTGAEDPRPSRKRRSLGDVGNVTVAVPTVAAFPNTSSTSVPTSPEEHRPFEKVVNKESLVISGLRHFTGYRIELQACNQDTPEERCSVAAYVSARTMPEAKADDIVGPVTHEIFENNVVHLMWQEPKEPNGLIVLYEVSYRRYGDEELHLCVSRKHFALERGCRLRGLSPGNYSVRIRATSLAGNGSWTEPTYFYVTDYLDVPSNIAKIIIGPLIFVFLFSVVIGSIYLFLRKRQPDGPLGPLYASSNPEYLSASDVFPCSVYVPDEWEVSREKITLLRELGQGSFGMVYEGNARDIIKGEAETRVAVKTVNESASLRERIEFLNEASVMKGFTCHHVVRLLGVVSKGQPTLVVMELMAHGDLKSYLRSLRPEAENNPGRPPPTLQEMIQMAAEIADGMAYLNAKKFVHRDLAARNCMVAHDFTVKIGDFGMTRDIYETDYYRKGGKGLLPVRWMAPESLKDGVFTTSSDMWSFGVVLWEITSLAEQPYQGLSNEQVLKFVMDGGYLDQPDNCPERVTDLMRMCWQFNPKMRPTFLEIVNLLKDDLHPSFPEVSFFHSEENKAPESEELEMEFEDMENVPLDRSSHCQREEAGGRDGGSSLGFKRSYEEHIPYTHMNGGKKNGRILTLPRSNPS
MAP3K2, sequence (Q9Y2U5 whole entry): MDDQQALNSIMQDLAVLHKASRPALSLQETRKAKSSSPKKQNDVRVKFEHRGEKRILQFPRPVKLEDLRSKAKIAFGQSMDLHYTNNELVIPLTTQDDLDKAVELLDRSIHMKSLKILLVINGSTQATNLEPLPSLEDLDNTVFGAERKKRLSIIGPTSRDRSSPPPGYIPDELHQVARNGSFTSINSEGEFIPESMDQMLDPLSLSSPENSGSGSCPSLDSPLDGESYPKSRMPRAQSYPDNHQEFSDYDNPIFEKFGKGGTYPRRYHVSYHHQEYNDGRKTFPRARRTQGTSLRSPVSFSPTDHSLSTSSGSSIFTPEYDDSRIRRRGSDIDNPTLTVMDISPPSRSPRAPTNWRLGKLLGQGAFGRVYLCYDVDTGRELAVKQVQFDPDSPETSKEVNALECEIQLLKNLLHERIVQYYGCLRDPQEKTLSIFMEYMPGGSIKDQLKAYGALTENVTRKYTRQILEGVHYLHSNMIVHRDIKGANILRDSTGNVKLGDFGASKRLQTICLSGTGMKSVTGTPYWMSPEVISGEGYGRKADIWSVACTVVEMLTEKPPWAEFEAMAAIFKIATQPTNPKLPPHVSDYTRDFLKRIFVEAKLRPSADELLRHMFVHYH
MAPK8, sequence (P45983 whole entry): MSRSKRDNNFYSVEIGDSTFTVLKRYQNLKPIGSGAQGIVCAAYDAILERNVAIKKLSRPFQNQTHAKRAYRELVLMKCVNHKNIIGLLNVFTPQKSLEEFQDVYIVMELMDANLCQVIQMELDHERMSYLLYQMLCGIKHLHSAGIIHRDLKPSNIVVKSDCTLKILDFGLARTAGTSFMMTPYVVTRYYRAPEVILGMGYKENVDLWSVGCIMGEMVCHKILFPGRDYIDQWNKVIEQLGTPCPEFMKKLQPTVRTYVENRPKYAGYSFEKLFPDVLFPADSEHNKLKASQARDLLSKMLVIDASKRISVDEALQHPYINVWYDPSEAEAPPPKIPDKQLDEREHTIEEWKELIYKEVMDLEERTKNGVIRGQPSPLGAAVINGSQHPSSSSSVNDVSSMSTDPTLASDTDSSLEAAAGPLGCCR
FGFR2, sequence (P21802 whole entry): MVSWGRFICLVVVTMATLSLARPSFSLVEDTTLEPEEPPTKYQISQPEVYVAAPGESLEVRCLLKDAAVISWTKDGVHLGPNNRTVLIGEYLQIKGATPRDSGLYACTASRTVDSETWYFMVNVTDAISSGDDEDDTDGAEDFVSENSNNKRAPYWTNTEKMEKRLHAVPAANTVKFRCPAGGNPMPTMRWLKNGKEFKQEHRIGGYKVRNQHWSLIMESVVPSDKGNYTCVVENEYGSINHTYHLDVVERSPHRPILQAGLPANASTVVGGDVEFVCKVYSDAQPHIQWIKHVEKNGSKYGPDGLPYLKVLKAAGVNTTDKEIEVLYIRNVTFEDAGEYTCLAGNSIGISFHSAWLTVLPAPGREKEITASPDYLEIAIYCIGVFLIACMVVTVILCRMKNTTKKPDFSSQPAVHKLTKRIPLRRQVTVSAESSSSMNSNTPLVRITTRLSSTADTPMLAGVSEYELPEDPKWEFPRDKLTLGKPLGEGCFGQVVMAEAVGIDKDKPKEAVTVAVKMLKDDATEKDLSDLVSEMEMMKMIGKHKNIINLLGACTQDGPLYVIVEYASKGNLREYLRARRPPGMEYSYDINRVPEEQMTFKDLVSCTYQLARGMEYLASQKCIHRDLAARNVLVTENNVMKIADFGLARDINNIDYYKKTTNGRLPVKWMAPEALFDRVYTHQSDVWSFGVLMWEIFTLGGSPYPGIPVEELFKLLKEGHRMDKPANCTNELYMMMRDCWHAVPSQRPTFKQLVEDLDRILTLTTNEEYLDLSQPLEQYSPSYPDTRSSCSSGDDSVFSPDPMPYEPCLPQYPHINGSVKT
BRSK2, sequence (Q8IWQ3 whole entry): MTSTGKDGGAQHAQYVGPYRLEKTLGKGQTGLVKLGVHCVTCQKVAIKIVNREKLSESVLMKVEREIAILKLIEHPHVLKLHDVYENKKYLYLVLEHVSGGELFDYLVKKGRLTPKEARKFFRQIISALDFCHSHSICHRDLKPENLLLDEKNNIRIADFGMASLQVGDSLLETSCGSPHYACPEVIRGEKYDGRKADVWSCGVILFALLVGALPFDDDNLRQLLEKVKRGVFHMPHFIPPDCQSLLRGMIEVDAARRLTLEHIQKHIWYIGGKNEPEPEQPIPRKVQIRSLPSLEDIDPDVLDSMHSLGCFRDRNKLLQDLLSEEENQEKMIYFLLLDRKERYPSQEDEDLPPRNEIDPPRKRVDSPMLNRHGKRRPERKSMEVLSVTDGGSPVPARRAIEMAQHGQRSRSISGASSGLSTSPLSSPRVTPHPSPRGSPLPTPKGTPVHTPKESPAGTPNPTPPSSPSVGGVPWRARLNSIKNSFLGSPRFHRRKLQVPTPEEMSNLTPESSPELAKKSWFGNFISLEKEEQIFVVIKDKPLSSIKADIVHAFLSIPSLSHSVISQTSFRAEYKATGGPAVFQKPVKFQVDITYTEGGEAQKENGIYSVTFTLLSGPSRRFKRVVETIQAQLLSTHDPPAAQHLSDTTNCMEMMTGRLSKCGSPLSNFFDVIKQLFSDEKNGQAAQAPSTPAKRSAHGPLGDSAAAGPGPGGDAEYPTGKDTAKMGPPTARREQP
ULK3, sequence (Q6PHR2 whole entry): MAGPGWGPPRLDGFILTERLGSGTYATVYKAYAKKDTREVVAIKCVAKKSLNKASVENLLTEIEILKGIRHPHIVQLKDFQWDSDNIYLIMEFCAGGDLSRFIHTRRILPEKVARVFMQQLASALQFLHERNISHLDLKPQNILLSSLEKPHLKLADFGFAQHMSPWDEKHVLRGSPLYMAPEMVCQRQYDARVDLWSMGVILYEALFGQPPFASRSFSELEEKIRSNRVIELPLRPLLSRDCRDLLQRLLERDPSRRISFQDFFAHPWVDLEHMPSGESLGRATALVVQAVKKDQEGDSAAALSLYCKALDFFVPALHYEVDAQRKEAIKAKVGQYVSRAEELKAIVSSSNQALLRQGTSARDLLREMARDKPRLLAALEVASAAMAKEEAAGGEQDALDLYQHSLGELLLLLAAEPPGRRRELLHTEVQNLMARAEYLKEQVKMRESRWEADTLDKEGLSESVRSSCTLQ

What is called inhibition is the relative decrease from the control value, in per cent. `C[C@@H](Oc1cc(-c2cnn(C3CCNCC3)c2)cnc1N)c1c(Cl)ccc(F)c1Cl` [crizotinib]: the inhibition at 1 µM on FGFR2 is 10%; on ULK3, 2%; at SGK1, -1%; at CAMK2A, 3%; on INSR, 20%; on MAP3K9, -1%. Moreover, the inhibition at 1 µM on CAMK1 is 7%; on BRSK2, 3%; at CDK14 it was 0%; at MAP3K2, 6%; on LATS2, -10%; at HIPK4, -9%. The inhibition at 1 µM is -6% on PRKAA2; 3% at PHKG2; -1% at PRKACA; 1% at NEK9; -16% on MAPK8; 11% on BMP2K.
